Data on ten compounds can be found in paper PMC12621043, “Un-LOK-ing a New Approach for Conformational Selective Targeting of STK10 (LOK)” (ACS Medicinal Chemistry Letters, 2025).

Holding throughout (assay): DSF Tm panel
What all share (format): binding
Holding throughout (details): 10 μM compound

Assay [1] concerns the target T1, EPHA5A (Homo sapiens, UniProt P54756).
T1 construct: purchased in-house DSF kinase panel (SGC-style construct names; the trailing letter is the construct ID)
T1 sequence (P54756 653-939): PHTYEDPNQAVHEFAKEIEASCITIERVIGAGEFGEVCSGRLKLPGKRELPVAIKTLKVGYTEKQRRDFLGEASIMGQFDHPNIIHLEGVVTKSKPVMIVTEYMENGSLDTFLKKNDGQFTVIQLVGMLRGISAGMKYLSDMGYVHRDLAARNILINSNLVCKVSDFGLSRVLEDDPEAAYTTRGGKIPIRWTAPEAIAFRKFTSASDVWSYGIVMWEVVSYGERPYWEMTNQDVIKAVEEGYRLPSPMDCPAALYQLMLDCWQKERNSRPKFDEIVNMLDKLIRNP

The target in assay [2] is T2, K2A2 (CSNK2A2A) (Homo sapiens, UniProt P19784).
T2 construct: purchased in-house DSF kinase panel (SGC-style construct names; the trailing letter is the construct ID)

Assay [3] concerns the target T3, PIM3A (Homo sapiens, UniProt Q86V86).
T3 construct: purchased in-house DSF kinase panel (SGC-style construct names; the trailing letter is the construct ID)

Assay [4] has as its target T4, STK6A (Homo sapiens, UniProt O14965).
T4 construct: purchased in-house DSF kinase panel (SGC-style construct names; the trailing letter is the construct ID)
T4 sequence (O14965 122-403): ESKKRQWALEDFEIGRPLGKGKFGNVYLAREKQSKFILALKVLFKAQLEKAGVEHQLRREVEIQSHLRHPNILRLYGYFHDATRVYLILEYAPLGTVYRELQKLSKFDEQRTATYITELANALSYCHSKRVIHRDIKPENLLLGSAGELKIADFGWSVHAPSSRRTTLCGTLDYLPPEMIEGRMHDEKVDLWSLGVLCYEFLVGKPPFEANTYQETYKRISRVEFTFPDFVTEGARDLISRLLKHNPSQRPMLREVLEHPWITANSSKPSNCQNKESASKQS

Assay [5] addresses T5, MAP2K4A (Homo sapiens, UniProt P45985).
T5 construct: purchased in-house DSF kinase panel (SGC-style construct names; the trailing letter is the construct ID)
T5 sequence (P45985 102-367): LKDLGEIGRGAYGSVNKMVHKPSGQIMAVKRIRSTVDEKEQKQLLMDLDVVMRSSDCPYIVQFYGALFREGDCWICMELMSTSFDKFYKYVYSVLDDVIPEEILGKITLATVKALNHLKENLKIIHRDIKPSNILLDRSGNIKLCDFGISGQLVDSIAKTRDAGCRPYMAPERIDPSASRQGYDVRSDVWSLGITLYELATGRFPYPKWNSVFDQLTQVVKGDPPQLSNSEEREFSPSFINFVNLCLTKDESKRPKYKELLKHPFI

The target of assay [6] is T6, CLK3A (Homo sapiens, UniProt P49761).
T6 construct: purchased in-house DSF kinase panel (SGC-style construct names; the trailing letter is the construct ID)

Assay [7] has as its target T7, CAMK4A (Homo sapiens, UniProt Q16566).
T7 construct: purchased in-house DSF kinase panel (SGC-style construct names; the trailing letter is the construct ID)
T7 sequence (Q16566 1-473): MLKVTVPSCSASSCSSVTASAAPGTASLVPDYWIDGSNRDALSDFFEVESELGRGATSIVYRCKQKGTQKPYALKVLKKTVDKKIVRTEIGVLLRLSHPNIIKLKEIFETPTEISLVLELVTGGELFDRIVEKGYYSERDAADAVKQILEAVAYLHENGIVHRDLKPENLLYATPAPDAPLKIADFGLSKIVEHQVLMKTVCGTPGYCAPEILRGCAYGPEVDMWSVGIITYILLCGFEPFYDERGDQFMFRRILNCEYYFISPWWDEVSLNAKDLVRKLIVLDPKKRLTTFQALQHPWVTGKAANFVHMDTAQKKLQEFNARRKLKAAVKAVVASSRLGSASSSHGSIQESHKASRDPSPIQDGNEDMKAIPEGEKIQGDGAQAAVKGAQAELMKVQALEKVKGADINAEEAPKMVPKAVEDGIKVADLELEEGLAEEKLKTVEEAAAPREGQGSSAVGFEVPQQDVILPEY

In assay [8] the target is T8, BMX (BMXA) (Homo sapiens, UniProt P51813).
T8 construct: purchased in-house DSF kinase panel (SGC-style construct names; the trailing letter is the construct ID)

In assay [9] the target is T9, GSK3BB (Homo sapiens, UniProt P49841).
T9 construct: purchased in-house DSF kinase panel (SGC-style construct names; the trailing letter is the construct ID)

For assay [10], the target named is T10, CAMK1DA (Homo sapiens, UniProt Q8IU85).
T10 construct: purchased in-house DSF kinase panel (SGC-style construct names; the trailing letter is the construct ID)

In assay [11] the target is T11, BRD4 (BRD4A) (Homo sapiens, UniProt O60885).
T11 construct: purchased in-house DSF kinase panel (SGC-style construct names; the trailing letter is the construct ID)

Assay [12] addresses T12, TTKA (Homo sapiens, UniProt P33981).
T12 construct: purchased in-house DSF kinase panel (SGC-style construct names; the trailing letter is the construct ID)
T12 sequence (P33981 519-808): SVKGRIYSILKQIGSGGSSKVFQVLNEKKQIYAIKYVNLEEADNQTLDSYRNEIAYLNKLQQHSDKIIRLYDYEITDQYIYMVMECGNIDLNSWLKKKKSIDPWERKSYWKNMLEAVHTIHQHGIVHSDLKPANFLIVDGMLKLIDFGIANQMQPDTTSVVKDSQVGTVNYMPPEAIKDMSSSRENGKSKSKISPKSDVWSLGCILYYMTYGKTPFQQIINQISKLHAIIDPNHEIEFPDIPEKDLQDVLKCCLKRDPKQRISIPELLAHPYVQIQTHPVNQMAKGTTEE

Assay [13] deals with T13, PAK1A (Homo sapiens, UniProt Q13153).
T13 construct: purchased in-house DSF kinase panel (SGC-style construct names; the trailing letter is the construct ID)
T13 sequence (Q13153 249-545): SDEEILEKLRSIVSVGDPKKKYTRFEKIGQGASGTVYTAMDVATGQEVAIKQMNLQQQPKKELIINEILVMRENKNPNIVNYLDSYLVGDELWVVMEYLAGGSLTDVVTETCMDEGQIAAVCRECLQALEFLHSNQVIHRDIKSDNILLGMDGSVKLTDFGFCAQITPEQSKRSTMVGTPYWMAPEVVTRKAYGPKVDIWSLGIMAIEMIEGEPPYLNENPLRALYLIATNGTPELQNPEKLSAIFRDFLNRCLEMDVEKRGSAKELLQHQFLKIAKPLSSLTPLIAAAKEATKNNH

T10 sequence (Q8IU85 whole entry): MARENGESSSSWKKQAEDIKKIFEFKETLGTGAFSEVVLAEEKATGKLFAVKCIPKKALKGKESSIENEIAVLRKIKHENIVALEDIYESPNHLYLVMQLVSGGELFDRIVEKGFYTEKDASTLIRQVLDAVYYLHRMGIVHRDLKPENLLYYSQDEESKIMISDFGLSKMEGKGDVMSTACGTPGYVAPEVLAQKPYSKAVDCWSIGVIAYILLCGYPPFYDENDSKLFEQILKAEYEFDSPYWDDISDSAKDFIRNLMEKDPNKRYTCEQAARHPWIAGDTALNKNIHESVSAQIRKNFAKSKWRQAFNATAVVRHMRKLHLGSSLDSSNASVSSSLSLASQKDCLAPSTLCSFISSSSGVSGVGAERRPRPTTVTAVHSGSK
T6 sequence (P49761 127-484): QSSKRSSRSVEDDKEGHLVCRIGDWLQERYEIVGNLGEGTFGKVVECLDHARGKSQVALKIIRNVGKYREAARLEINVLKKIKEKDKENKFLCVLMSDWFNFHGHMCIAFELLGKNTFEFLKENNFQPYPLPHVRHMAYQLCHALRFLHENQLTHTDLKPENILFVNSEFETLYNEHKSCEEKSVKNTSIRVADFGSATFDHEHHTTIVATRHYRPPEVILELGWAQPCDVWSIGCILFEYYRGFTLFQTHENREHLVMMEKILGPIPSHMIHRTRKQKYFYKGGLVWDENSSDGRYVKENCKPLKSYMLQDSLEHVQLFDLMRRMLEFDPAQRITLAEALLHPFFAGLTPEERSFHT
T2 sequence (P19784 whole entry): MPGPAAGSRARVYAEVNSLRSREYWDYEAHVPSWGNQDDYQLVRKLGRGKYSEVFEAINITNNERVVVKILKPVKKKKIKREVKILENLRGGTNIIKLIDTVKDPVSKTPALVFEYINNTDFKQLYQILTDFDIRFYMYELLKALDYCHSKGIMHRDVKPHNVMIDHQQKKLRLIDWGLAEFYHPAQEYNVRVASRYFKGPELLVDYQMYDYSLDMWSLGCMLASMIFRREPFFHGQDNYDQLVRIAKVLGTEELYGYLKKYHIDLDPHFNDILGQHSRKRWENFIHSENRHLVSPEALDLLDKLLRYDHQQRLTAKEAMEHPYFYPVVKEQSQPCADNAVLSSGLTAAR
T9 sequence (P49841 35-386): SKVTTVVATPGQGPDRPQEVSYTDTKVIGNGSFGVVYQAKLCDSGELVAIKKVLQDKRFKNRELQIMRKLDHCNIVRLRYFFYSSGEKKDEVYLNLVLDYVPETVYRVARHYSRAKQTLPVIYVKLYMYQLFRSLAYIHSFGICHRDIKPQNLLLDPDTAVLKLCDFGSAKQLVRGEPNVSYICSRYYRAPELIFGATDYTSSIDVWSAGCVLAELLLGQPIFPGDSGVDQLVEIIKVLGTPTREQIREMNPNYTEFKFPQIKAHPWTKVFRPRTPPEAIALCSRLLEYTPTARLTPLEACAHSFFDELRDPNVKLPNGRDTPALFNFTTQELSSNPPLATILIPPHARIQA
T8 sequence (P51813 411-675): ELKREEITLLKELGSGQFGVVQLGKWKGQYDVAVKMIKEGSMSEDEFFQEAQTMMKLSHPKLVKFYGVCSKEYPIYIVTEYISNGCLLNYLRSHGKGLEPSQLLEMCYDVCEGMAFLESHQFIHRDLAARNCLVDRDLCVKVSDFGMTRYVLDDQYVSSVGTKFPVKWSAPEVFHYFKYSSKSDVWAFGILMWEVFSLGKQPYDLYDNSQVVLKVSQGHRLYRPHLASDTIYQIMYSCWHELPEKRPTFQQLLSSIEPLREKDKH

Turning to `O=C(NCc1ccccc1)Nc1ccc2cc1OCCOCCNc1ccn3ncc-2c3n1` [compound 16], the ΔTm (in general, the change in melting temperature against a reference sample) at 10 µM was found to be 0.1 °C in assay [1]; 2.3 °C in assay [2]; 2.4 °C in assay [3]; 7.5 °C in assay [4]; 5.2 °C in assay [5]; 0.3 °C in assay [6]. Besides, the ΔTm at 10 µM is 0.5 °C in [7]; 1.7 °C in assay [8]; 1.1 °C in [9]; 0 °C in assay [10]; 0.7 °C in assay [11]; 1.5 °C in assay [12]. The ΔTm at 10 µM in assay [13] was found to be 0.1 °C.
As to `O=C(NCc1ccccc1Cl)Nc1ccc2cc1OCCOCCNc1ccn3ncc-2c3n1` [compound 17], the shift in melting temperature (ΔTm) at 10 µM in assay [1] turned out to be 0.1 °C; in [2], 4 °C; in [3], 2.4 °C; in assay [4], 6.7 °C; in assay [5], 5 °C; in [6] it was 0.1 °C. Moreover, the thermal shift (ΔTm) at 10 µM in assay [7] was 0.6 °C; in [8] it was 1.2 °C; in assay [9], 1 °C; in assay [10], -0.3 °C; in assay [11], 1.3 °C; in assay [12], 1.8 °C. The ΔTm at 10 µM in assay [13] is 0.6 °C.
With `O=C(NCc1cccc(Cl)c1)Nc1ccc2cc1OCCOCCNc1ccn3ncc-2c3n1` [compound 18], the thermal shift (ΔTm) at 10 µM in assay [1] was determined as 0.4 °C; in assay [2], 3.1 °C; in assay [3] it was 3 °C; in [4], 7.3 °C; in [5], 4.1 °C; in assay [6], 0.3 °C. Further, the ΔTm at 10 µM in assay [7] was 1.3 °C; in assay [8], 1.4 °C; in assay [9], 0 °C; in assay [10], 0.4 °C; in assay [11], 1.5 °C; in assay [12] it was 2.2 °C. The ΔTm at 10 µM in [13] turned out to be 0.7 °C.
With `O=C(NCc1ccc(Cl)cc1)Nc1ccc2cc1OCCOCCNc1ccn3ncc-2c3n1` [compound 19], the thermal shift (ΔTm) at 10 µM in assay [1] came to 0.3 °C; in [2] it was 3.6 °C; in assay [3], 2.4 °C; in assay [4], 7.1 °C; in assay [5], 5.7 °C; in assay [6] it was 0.4 °C. Moreover, the ΔTm at 10 µM in assay [7] turned out to be 1 °C; in assay [8], 1.4 °C; in assay [9] it was 0.6 °C; in assay [10] it was 0.6 °C; in [11], 1 °C; in assay [12], 1.4 °C. Besides, in [13], the thermal shift (ΔTm) at 10 µM was found to be 0.9 °C.
As for `O=C(NCc1ccc(Cl)cc1Cl)Nc1ccc2cc1OCCOCCNc1ccn3ncc-2c3n1` [compound 20], the thermal shift (ΔTm) at 10 µM in assay [1] is 0.7 °C; in assay [2], 3 °C; in assay [3], 3.3 °C; in assay [4], 7.4 °C; in [5] it was 3.9 °C; in assay [6], 0.3 °C. Also, the ΔTm at 10 µM turned out to be 0.4 °C in assay [7]; 1.6 °C in [8]; 0.6 °C in assay [9]; 1 °C in assay [10]; 1.8 °C in [11]; 1.2 °C in [12]. Besides, in assay [13], the shift in melting temperature (ΔTm) at 10 µM was 2.5 °C.
With `O=C(NCc1ccc(Cl)cc1F)Nc1ccc2cc1OCCOCCNc1ccn3ncc-2c3n1` [compound 21], the thermal shift (ΔTm) at 10 µM turned out to be 0.7 °C in [1]; 4.2 °C in assay [2]; 3.9 °C in assay [3]; 6.9 °C in assay [4]; 5.4 °C in [5]; 0.6 °C in assay [6]. Moreover, the thermal shift (ΔTm) at 10 µM in [7] came out at 0.9 °C; in assay [8], 1.4 °C; in [9], 0.2 °C; in [10], 0.8 °C; in [11], 2 °C; in [12], 1.8 °C. For the same compound, in assay [13], the thermal shift (ΔTm) at 10 µM came out at 1 °C.
Regarding `Cc1cc(Cl)ccc1CNC(=O)Nc1ccc2cc1OCCOCCNc1ccn3ncc-2c3n1` [compound 23], the shift in melting temperature (ΔTm) at 10 µM in [1] came out at 1 °C; in assay [2], 2.8 °C; in assay [3], 2.2 °C; in [4] it was 5.6 °C; in [5], 4.8 °C; in assay [6], 0.4 °C. The ΔTm at 10 µM amounted to 0.6 °C in assay [7]; 1.8 °C in assay [8]; 0.4 °C in [9]; 2.1 °C in [10]; 2 °C in assay [11]; 1.8 °C in [12]. The ΔTm at 10 µM in [13] stood at 2 °C.
For the compound `Cc1cc(Br)ccc1CNC(=O)Nc1ccc2cc1OCCOCCNc1ccn3ncc-2c3n1` [compound 24], the ΔTm at 10 µM came out at 1.4 °C in [1]; 0.5 °C in [2]; 2.8 °C in assay [3]; 5.4 °C in assay [4]; 3.2 °C in [5]; 0.2 °C in assay [6]. For the same compound, the shift in melting temperature (ΔTm) at 10 µM in assay [7] was 0.8 °C; in [8], 1.8 °C; in [9] it was -0.2 °C; in [10], 1.3 °C; in assay [11], 1.4 °C; in assay [12], 2.6 °C. In addition, in [13], the ΔTm at 10 µM came out at 1.1 °C.
With `Cc1ccc(F)cc1CNC(=O)Nc1ccc2cc1OCCOCCNc1ccn3ncc-2c3n1` [compound 26], the shift in melting temperature (ΔTm) at 10 µM in assay [1] was 1.1 °C; in assay [2] it was 0.9 °C; in assay [3], 4 °C; in assay [4], 6.4 °C; in assay [5] it was 3.2 °C; in [6], 0.1 °C. In addition, the thermal shift (ΔTm) at 10 µM in assay [7] is 0.8 °C; in assay [8] it was 0.3 °C; in [9], 0.5 °C; in [10], 1 °C; in [11] it was 0.5 °C; in assay [12], 1.9 °C. The shift in melting temperature (ΔTm) at 10 µM in [13] came out at 0.7 °C.
Consider `O=C(NCc1ccccc1C(F)(F)F)Nc1ccc2cc1OCCOCCNc1ccn3ncc-2c3n1` [compound 27], for which the ΔTm at 10 µM stood at 1.6 °C in assay [1]; 0.7 °C in assay [2]; 4.6 °C in assay [3]; 7 °C in assay [4]; 5.1 °C in assay [5]; 0.2 °C in assay [6]. In addition, the ΔTm at 10 µM in assay [7] was 1.2 °C; in assay [8] it was 3 °C; in assay [9], -0.2 °C; in assay [10], 1.7 °C; in assay [11] it was 1.8 °C; in [12] it was 3.5 °C. In addition, the shift in melting temperature (ΔTm) at 10 µM in [13] was found to be 1.5 °C.
